According to US20260240802A1, “USE OF MYRIOCIN AS ADJUVANT IN GLAUCOMA SURGERY” (priority 2023, published 2026):
Entries after “also recorded” stand apart in the source; their conditions may differ. Where two headings read alike, the source gives them in different places.

How the values were obtained:
fibroblasts [1] = conditions: Josamycin 69.4 μg/ml (JM69.4); cited from earlier work
human dermic fibroblasts [2] = test: Scratch test assay; type: cell-based
Procedure: (§1) The fibroblasts, cultivated in culture medium DMEM (EuroClone) additioned with 10% of Fetal Bovine Serum (EuroClone) and 1% of penicillin/streptomycin (Sigma-Aldrich), were kept in incubator at 37° C., 5% of CO2 until reaching the full confluence which corresponds approximately to 1.2-1.3*10^6 cells. After detachment from the culture flasks (T75) with a solution of trypsin/EDTA, 1.5-2.5*10^5 or 4.0*10^5 fibroblasts were respectively plated in 60-mm or 100-mm wide Petri dishes for the subsequent treatments.
In six-well plates, 150,000 fibroblasts/well were plated and left to proliferate until reaching a confluence of 80-90%. At this point, defined time zero (T0), the cellular monolayer is damaged by creating a vertical groove corresponding to the well diameter.

postoperative fibrosis = conditions: after 5 years, mitomycin C in intraoperative therapy (before: 24-74% after 4 years); cited from earlier work
human dermic fibroblasts [3] = type: cell-based; conditions: for total cells after 24 hours of treatment: human
Procedure: as §1
The fibroblasts, cultivated in ninety-six-well plates, were divided into the experimental groups: ctr, Mito and Myr. 24 hours after sowing (T0), the controls were collected for counting the live and dead cells and one proceeded with the treatment of the groups Mito and Myr for the subsequent 24 hours, with the respective substances. After detachment with a solution of trypsin/EDTA, the fibroblasts were isolated by centrifugation (100 g×6 minutes) and the obtained precipitate was resuspended in phosphate buffer. To the cellular suspension, 10% of 0.4% Trypan Blue dye solution was added. The live cells and the dead cells, coloured blue for the intracellular permeation of the dye through the damaged plasmatic membrane, are counted by using Bürker camera (Fabiani C., et al., Naunyn-Schmiedebergs Arch. Pharmacol. 2017; 390:741-751).

collagen = test: transcription and translation of collagen in fibroblasts (FIG. 4); type: cell-based; conditions: pre-treated 1 hour with Myriocin 50 µM, then 24 hours in combination with TGFβ 5 ng/ml
Procedure: FIG. 4: Ctrl: not treated fibroblasts; TGFβ: fibroblasts treated 24 hours with TGFβ 5 ng/ml; TGFβ/Myr: fibroblasts pre-treated 1 hour with Myriocin 50 µM and for subsequent 24 hours in combination with TGFβ 5 ng/ml; TGFβ/Mito: fibroblasts pre-treated 5 minutes with Mitomycin 50 µM, and for subsequent 24 hours with TGFβ 5 ng/ml in absence of Mitomycin.

[4] = target: T1, serine-palmitoyl transferase (Homo sapiens, UniProt O15269+O15270); test: mass spectrometry of the ceramide content of fibroblasts; type: cell-based; conditions: myriocin 50 μM
T1 construct: the fibroblasts were isolated by centrifugation; endogenous in cells
T1 sequence (O15269 1-473): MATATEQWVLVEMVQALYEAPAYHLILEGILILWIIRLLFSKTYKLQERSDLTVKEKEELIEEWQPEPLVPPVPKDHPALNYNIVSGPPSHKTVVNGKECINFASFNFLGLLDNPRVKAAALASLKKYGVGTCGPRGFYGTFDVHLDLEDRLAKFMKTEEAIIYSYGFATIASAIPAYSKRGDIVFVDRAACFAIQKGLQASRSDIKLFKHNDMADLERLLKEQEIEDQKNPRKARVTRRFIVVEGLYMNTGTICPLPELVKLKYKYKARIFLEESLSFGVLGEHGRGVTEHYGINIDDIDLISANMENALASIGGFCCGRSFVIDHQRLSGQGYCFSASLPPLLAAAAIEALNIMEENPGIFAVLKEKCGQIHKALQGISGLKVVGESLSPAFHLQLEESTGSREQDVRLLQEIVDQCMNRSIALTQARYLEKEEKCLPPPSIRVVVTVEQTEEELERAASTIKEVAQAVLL
T1 sequence (O15270 1-562): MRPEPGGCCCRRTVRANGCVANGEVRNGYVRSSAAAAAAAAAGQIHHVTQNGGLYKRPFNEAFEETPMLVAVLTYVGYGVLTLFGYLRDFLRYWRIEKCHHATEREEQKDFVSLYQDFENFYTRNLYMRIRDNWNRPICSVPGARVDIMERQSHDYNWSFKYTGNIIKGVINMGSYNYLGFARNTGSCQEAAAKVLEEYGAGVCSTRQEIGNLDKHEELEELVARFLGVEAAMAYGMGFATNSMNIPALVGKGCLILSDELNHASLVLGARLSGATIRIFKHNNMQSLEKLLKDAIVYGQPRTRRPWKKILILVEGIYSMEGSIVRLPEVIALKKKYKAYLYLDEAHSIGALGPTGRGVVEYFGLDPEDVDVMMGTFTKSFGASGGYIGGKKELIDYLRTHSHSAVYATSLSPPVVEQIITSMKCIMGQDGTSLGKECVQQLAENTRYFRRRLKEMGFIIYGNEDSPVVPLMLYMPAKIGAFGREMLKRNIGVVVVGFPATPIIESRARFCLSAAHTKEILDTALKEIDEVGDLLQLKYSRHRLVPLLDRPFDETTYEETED
T1 sequence (Q969W0 1-71 partner): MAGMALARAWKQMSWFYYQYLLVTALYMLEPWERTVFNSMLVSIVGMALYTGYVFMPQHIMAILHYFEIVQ
Procedure: On the day of treatment, in groups ctr, TGFβ, Myr, Myr/TGFβ the culture medium was replaced by fresh medium. The groups Myr and Myr/TGFβ were pretreated for 1 hour with myriocin 5 mM (Sigma-Aldrich) so as to obtain a final concentration of 50 μM. […] The pretreatment with mitomycin C, lasting 5 minutes to simulate the administration time in the operating room of the drug on the patient suffering from glaucoma, was interrupted by two washes, each one lasting 2 minutes, with phosphate buffer (PBS). To the groups TGFβ, Myr/TGFβ and Mito/TGFβ, TGFβ 200 ng/ml is then added to obtain a final concentration of 5 ng/ml, as reported in literature (Wu N. et al., Mol Cell Biochem. 2020; 470:175-188). The fibroblasts were then put in incubator for 24 hours, until performing the different analyses.
After detachment with a solution of trypsin/EDTA, the fibroblasts were isolated by centrifugation (100 g×6 minutes). The obtained precipitate was resuspended in phosphate buffer (PBS), centrifuged at 100 g×6 minutes, resuspended again in phosphate buffer (PBS) and centrifuged at 500 g×5 minutes at 4° C. The precipitate was resuspended in 100 μl of PBS containing a mixture of protease inhibitors (Protease Inhibitor Cocktails, EDTA-free, Roche) and kept at −20° C. until use. The extraction of the lipids and the analysis of the samples for evaluating the ceramide content, whose synthesis is locked by inhibiting the enzyme serine-palmitoyl transferase by Myr, follow published protocols (Morano C. et al., Metabolites. 2022; 12 (5): 450).

[5] = tested on: MMP-9 (Matrix metalloproteinase 9); test: RT-PCR expression of transcript MMP-9 in fibroblasts; type: cell-based, human; conditions: myriocin 50 μM 1 hour pretreatment + 24 hours with TGFβ 5 ng/ml
Procedure: (§2) Expression of the transcript (mRNA) of αSMA, CTGF, MMP-9 evaluated by RT-PCR, in fibroblasts: control (ctr); stimulated with TGFβ (TGFβ); pretreated 1 hour with Myriocin and for the subsequent 24 hours in combination with TGFβ (Myr/TGFβ); pretreated 5 minutes with Mitomycin C, washed and treated for the subsequent 24 hours with TGFβ (Mito/TGFβ); pretreated 1 hour with Myriocin and for the subsequent 24 hours with Myriocin (Myr); pretreated 5 minutes with Mitomycin C, washed and for the subsequent 24 hours with culture medium (Mito). The results represent the average±standard error of 5 experiments and they are represented as variation with respect to the control (ratio between the expression in the various groups and the control). The control is set equal to 1 and designated in figure with the dotted line. […]
(§3) The following transcripts of interest were analysed: • αSMA (α Smooth Muscle Actin): marker of the activation of the fibroblasts to miofibroblasts; • CTGF (Connective Tissue Growth Factor): protein of the extracellular matrix with pro-fibrotic activity; • MMP-9 (Matrix metalloproteinase 9): enzyme which degrades the proteins of the extracellular matrix.

fibroblasts [6] = test: proliferation/vitality MTT assay; type: cell-based; conditions: 24 hours, Myriocin 50 μM, not treated fibroblasts = 100%
Procedure: These proliferation data result to be an improvement with respect to those obtained by the authors with JM47.2, which is equivalent to a concentration of approximately 56 μM, not considered among the effective concentrations in anti-fibrotic sense.

[7] = tested on: αSMA (α Smooth Muscle Actin); test: RT-PCR expression of transcript αSMA in fibroblasts; type: cell-based, human; conditions: myriocin 50 μM 1 hour pretreatment + 24 hours with TGFβ 5 ng/ml
Procedure: as §2, §3

human dermic fibroblasts [8] = type: cell-based; conditions: fibroblasts activated with TGFβ, compared with mitomycin C
Procedure: The anti-fibrotic activity of myriocin, compared to that of mitomycin C, was evaluated in vitro by using human dermic fibroblasts of healthy subjects, available commercially.
as §1
The cells were divided into six experimental groups: • 1. control group without treatment (denominated ctr) • 2. group treated with TGFβ (denominated TGFβ) • 3. group treated with Myriocin and TGFβ (denominated Myr/TGFβ) • 4. group treated with Mitomycin C and TGFβ (denominated Mito/TGFβ) • 5. group treated with Myriocin (denominated Myr) • 6. group treated with Mitomycin C (denominated Mito)
On the day of treatment, in groups ctr, TGFβ, Myr, Myr/TGFβ the culture medium was replaced by fresh medium. The groups Myr and Myr/TGFβ were pretreated for 1 hour with myriocin 5 mM (Sigma-Aldrich) so as to obtain a final concentration of 50 μM. […]

[9] = tested on: CTGF (Connective Tissue Growth Factor); test: RT-PCR expression of transcript CTGF in fibroblasts; type: cell-based, human; conditions: myriocin 50 μM 1 hour pretreatment + 24 hours with TGFβ 5 ng/ml
Procedure: as §2, §3

In the case of CO[C@@H]1[C@@H](O[C@@H]2O[C@H](C)[C@@H](O[C@H]3C[C@@](C)(O)[C@@H](OC(=O)CC(C)C)[C@H](C)O3)[C@H](N(C)C)[C@H]2O)[C@@H](CC=O)C[C@@H](C)[C@@H](O)/C=C/C=C/C[C@@H](C)OC(=O)C[C@H]1OC(C)=O [Josamycin], the “proliferation percentage of the fibroblasts” value (fibroblasts [1]) is given as “less than 50%”.

For CO[C@@]12[C@H](COC(N)=O)C3=C(C(=O)C(C)=C(N)C3=O)N1C[C@@H]1N[C@@H]12 [Mitomycin C], the cellular death (human dermic fibroblasts [2]; 50 μM, 24 and 48 hours) was “induced a progressive cellular death”, the “migration of fibroblasts after damage of the cellular carpet” value (from here on “migration of fibroblasts”) (human dermic fibroblasts [2]; 50 μM, 24 and 48 hours, listed as Mitomycin) was “migrate only partially” and the “migration of fibroblasts” value (human dermic fibroblasts [2]; 50 μM, 24 and 48 hours, listed as mitomycin C) was “reduced the migration of fibroblasts”. The “morphological change of fibroblasts” value (human dermic fibroblasts [2]; between T1 (24 hours) and T2 (48 hours)) was “progressive morphological change (from tapering to rounded)”, the “percentage of failure of the surgical therapy” value (postoperative fibrosis) was 23-51% and the “change of total cells after 24 hours” value (human dermic fibroblasts [3]) was “halved”. For the same compound, the “total cells after 24 hours of treatment” value (human dermic fibroblasts [3]) was 5466 total cells/well.

With CCCCCCC(=O)CCCCCC/C=C/C[C@@H](O)[C@H](O)[C@@](N)(CO)C(=O)O [Myriocin] the “transcription (panel A) and translation (panel B) of collagen” value (collagen) was “capable of controlling the transcription (panel A) and the translation (panel B) of collagen”, the “reduction of ceramide level with respect to basal ctr” value ([4]; Myr group vs ctr) was “about 15%” and the “reduction of dihydroceramide level with respect to basal ctr” value ([4]; Myr group vs ctr) was ~25%. For the same compound, the “reduction of ceramide level with respect to the group stimulated with TGFβ” value ([4]; Myr/TGFβ vs TGFβ, TGFβ 5 ng/ml) was ~50%, the “reduction of dihydroceramide level with respect to the group stimulated with TGFβ” value ([4]; Myr/TGFβ vs TGFβ, TGFβ 5 ng/ml) was ~60% and the “reduction of MMP-9 transcript expression increase induced by TGFβ” value [5] was “more effective than mitomycin C; also recorded: reducing the expression of MMP-9”. The “migration of fibroblasts” value (human dermic fibroblasts [2]; 50 μM, 24 and 48 hours) was “migrate only partially”, the “migration of fibroblasts” value (human dermic fibroblasts [2]; 50 μM, 24 and 48 hours, listed as myriocin) was “reduced the migration of fibroblasts” and the “% proliferation (relative proliferation/vitality index)” value (fibroblasts [6]) was “higher than 60%”. For the same compound, the “% proliferation (relative proliferation/vitality index)” value (fibroblasts [6]; listed as MYR) was 62%, the “reduction of αSMA transcript expression increase induced by TGFβ” value [7] was “more effective than mitomycin C; also recorded: reduces the expression of αSMA” and the anti-fibrotic efficacy (human dermic fibroblasts [8]) was “comparable to mitomycin C”. The anti-fibrotic efficacy (human dermic fibroblasts [8]; listed as myriocin) was “comparable to that of the drug mitomycin C”, the “reduction of CTGF transcript expression increase induced by TGFβ” value [9] was “more effective than mitomycin C” and the “increase of total cells after 24 hours” value (human dermic fibroblasts [3]; after 24 hours vs T0) was “about 70%”. For the same compound, the “total cells after 24 hours of treatment” value (human dermic fibroblasts [3]) was 11733 total cells/well.
